Results taken from paper PMC3236199, “Development of Derivatives of 3, 3′-Diindolylmethane as Potent Leishmania donovani Bi-Subunit Topoisomerase IB Poisons” (PLoS ONE, 2011).
Read-outs that look alike come from different tables or passages of the source.

Assays:
[1] = tested on: L. donovani AG83 promastigotes; assay: Cell viability assay, wild type promastigotes; format: cell-based; details: Leishmania donovani, 12 h, read-out: growth inhibited
Description: (§1) L. donovani strain AG83 and DIM resistant parasite DR50 promastigotes were grown at 22°C in M199 liquid media supplemented with 10% FBS as described. Axenic amastigotes were cultured in modified M199 medium (pH 5.3) supplemented with 10 mM sodium succinate, 40 mM HEPES and 25% FCS and maintained at 37°C with 5% CO2.The effect of drugs on the viability of Leishmania parasites was determined by direct microscopic counting using light microscope (40× objective) in a haemocytometer. The cells at the exponential phase were collected and transferred into 24-well plate (3.5×10^6 cells per well). The cells were then incubated for 12 h in the presence of various concentrations of DIM, DPDIM, DMDIM and DMODIM (1, 5, 10, 20 and 50 µM). For other experiments, 10^4 cells were taken and grown in presence of the respective derivatives for a period of 30 days. For each 5 day interval, a small amount of aliquots were taken out. After incubation the cells were centrifuged and cell pellet was washed with PBS (1×) twice and finally suspended in 1 ml PBS (1×). Fifty µl of aliquot was taken, mixed with 0.4% trypan blue solution and incubated for 3 min at 22°C. One drop of the mixture was transferred to haemocytometer and the clear (live) and blue (dead) cells were counted. The total number of viable cells in aliquot was calculated by multiplying the total number of viable cells by 2 (the dilution factor for trypan blue). To obtain the total number of cells in the aliquot, total number of viable and nonviable cells were added up and multiplied by 2. Percentages of viable cells were calculated using the formula: [drawing 1]
The effects of different derivatives of DIM on cell proliferation were tested by incubating wild type and DIM resistant L. donovani promastigotes (3.5×10^6 cells/ml) with the drugs. […] The number of live promastigotes was measured by differential staining of live and dead cells using light microscope under 40× objective (Fig. 2). […]
(§2) Figure 2 Effect of DIM-derivatives on Leishmania parasites. Growth of L. donovani AG83 promastigotes (A) and DIM resistant promastigotes (B) were monitored in presence of increasing concentrations (1, 5, 10, 20 and 50 µM) of DIM, DPDIM, DMDIM and DMODIM for 12 h. […] Change in IC50 values after a prolong exposure to DIM derivatives (C) has been assessed as described in Materials and Methods. After every 5 day a small aliquot was taken out and number of viable promastigotes was counted for each concentration. IC50 values have been determined from them using Graph Pad Prsim ver 5.0 software and a graphical plot was generated over time. Growth of the parasites treated with the compounds was expressed as percentage of the viable promastigotes compared with that of control. […]

[2] = tested on: wild type L. donovani AG83 promastigotes; assay: DNA fragmentation assay (cell death detection ELISA), wild type; format: cell-based, Leishmania donovani; details: 20 µM
Description: Leishmanial cells were cultured in 24-well plates and treated with 20 µM of DIM, DPDIM, DMDIM and DMODIM for different times. Samples were collected at requisite time points and subjected to measurement of DNA fragmentations. Cytoplasmic histone-associated DNA fragments (mononucleosome and oligonucleosomes) formed during apoptosis were detected using a cell death detection ELISA kit (Roche Biochemicals) by spectrophotometric measurement of microtiter plates in a Thermo MULTISKAN EX plate reader at 405 nm. The relative percentages (with respect to samples treated with micrococcal nuclease and normalized to percentage values) were plotted as units of time or drug concentrations as described previously.
The internucleosomal DNA digestion by an endogenous nuclease (genomic DNA fragmentation) is considered as a hallmark of apoptotic cell death. […] To investigate whether these derivatives also do the same, we performed the DNA fragmentation assay with wild type L. donovani AG83 promastigotes and DIM resistant parasites (Fig. 4) by ELISA as described in Materials and Methods. […] DNA fragmentation increased to 85%, 89%, 81% and 71% at 8 h of treatment in wild type parasites. The DIM resistant parasites (LdDR50) have much less effect in DNA fragmentation (13% at 6 h and 17% at 8 h) when treated with 20 µM DIM. On the other hand the extents of DNA fragmentations were 63%, 51% and 40% at 6 h treatment with DPDIM, DMDIM and DMODIM respectively. The extent of fragmentation increased to 82%, 74% and 65% after treatment for 8 h with the drugs as mentioned above.
Figure 4 DIM derivatives-induced fragmentation of genomic DNA in wild type and DIM resistant parasites. Relative percentage of DNA fragmentation measured by cell death detection ELISA kit in L. donovani promastigotes treated with DIM, DPDIM, DMDIM and DMODIM. The experiments were performed three times and representative data from one of these experiments as means ± SD.

[3] = tested on: DIM resistant DR50 promastigotes; assay: Change in IC50 on prolonged exposure of DIM resistant promastigotes; format: cell-based; details: Leishmania donovani
Description: as §1, with “Fifty µl of aliquot was taken, mixed with 0.4% trypan blue solution and incubated for 3 min at 22°C.” left out, “To obtain the total number of cells in the aliquot, total number of viable and nonviable cells were added up and multiplied by 2.” left out
as §2, with “time.” for “time. Growth of the parasites treated with the compounds was expressed as percentage of the viable promastigotes compared with that of control.”

Cc1[nH]c2ccccc2c1Cc1c(C)[nH]c2ccccc12 [DMDIM, 2,2′-dimethyl 3,3′-diindolyl methane]
inhibition at 20 µM [1]: 83%
fragmentation of DNA ([2]; 6 h): 60%
fragmentation of DNA ([2]; 8 h): 81%

c1ccc(-c2[nH]c3ccccc3c2Cc2c(-c3ccccc3)[nH]c3ccccc23)cc1 [DPDIM, 2,2′-diphenyl 3,3′-diindolyl methane]
IC50 [3]: 0.05 µM
IC50 ([3]; 24 h): 2.3 µM
inhibition at 20 µM [1]: 96%
fragmentation of DNA ([2]; 6 h): 79%
fragmentation of DNA ([2]; 8 h): 89%

c1ccc2c(Cc3c[nH]c4ccccc34)c[nH]c2c1 [DIM, 3, 3′-diindolyl methane, reference compound]
inhibition at 20 µM ([1]; 20 µM, wild type AG83 promastigotes): 88%
fragmentation of DNA ([2]; 6 h): 73%
fragmentation of DNA ([2]; 8 h): 85%

COc1ccc2[nH]cc(Cc3c[nH]c4ccc(OC)cc34)c2c1 [DMODIM, 5,5′-dimethoxy 3,3′-diindolyl methane]
IC50 ([3]; 24 h): 7.26 µM
inhibition at 20 µM [1]: 70%
fragmentation of DNA ([2]; 6 h): 49%
fragmentation of DNA ([2]; 8 h): 71%
